Measurements reported in paper PMC9960759, “Discovery of New Boswellic Acid Hybrid 1H-1,2,3-Triazoles for Diabetic Management: In Vitro and In Silico Studies” (Pharmaceuticals, 2023).
Where two headings read alike, the source gives them in different places.

Tests used:
[1] = target: α-glucosidase (EC 3.2.1.20)
Experimental: The α-glucosidase (EC 3.2.1.20; Saccharomyces cerevisiae) assay was carried out using 50 mM of phosphate buffer (pH = 6.8). The test samples were dissolved in DMSO. The enzyme (1U/2mL) dissolved in phosphate buffer: 20 µL/well of enzyme, 20 µL/well of test samples, and 135 µL/well of phosphate buffer were employed in the 96-well plate. After adding all of these into the 96-well plate, followed by 15 min incubation at 37 °C, 25 µL/well of substrate para-nitro phenyl-α-D-glucopyranoside (0.7 mM) was added to the 96-well plate, and measurements were taken at 400 nm for 30 min using a spectrophotometer (xMarkTM Microplate, Bio-Rad, Hercules, CA, USA). As a control, 7% DMSO was employed. […] For mechanistic studies, a similar procedure was employed, with the addition of four different substrate concentrations: 0.1, 0.2, 0.4, and 0.8 µM. The percentage of inhibition was estimated using the following formula: % Inhibition=100×O.D. of test compound/O.D. of control−100

α-glucosidase = experiment: Kinetic (mechanistic) studies of α-glucosidase inhibition; format: biochemical, Saccharomyces cerevisiae; conditions: for Ki: four substrate concentrations, Lineweaver–Burk / Dixon plots; for type of inhibition: kinetic studies
Experimental: In this type of inhibition, the inhibitor binds with the active site residue of enzyme and, therefore, Vmax remains the same, with an increase in the Km. […] In this type of inhibition, both inhibitors—Vmax and Km—are affected by Vmax decreases and Km increases. […] The test samples were dissolved in DMSO. […] (B) Secondary replot of Lineweaver–Burk plot between the slopes of each Lineweaver–Burk plot vs. different concentrations of compound 6f. (C) Dixon plot of reciprocal of rate of reaction (velocities) vs. different concentrations of compound 6f. […] (B) Secondary replot of Lineweaver–Burk plot between the slopes of each Lineweaver–Burk plot vs. different concentrations of compound 7h. (C) Dixon plot of reciprocal of rate of reaction (velocities) vs. different concentrations of compound 7h.

[2] = read-out: IC50, α-glucosidase-inhibitory activity
[3] = read-out: IC50 ± µM, in vitro α-glucosidase-inhibitory activity, Table 2, substrate p-nitrophenyl-α-D-glucopyranoside 0.7 mM, pH 6.8, 37 °C

| SMILES | IC50 [1, 2] [µM] | IC50 [1, 3] [µM] | Ki (α-glucosidase) [nM] | type of inhibition (α-glucosidase) |
| --- | --- | --- | --- | --- |
| CC(=O)OC1CCC2(C)C(CCC3(C)C2C(=O)C=C2C4C(C)C(C)CCC4(C)CCC23C)C1(C)C(=O)OCn1cc(-c2ccccc2)nn1 (stereo not drawn) [6a, (4-Phenyl-1H-1,2,3-triazol-1-yl) Methyl 3α-acetyloxy-11-oxo-urs-12-en-24-oate] | 2.02 ± 0.031 | 2.02 ± 0.03 |  |  |
| CC(=O)O[C@@H]1CC[C@@]2(C)[C@@H](CC[C@]3(C)[C@@H]2C(=O)C=C2[C@@H]4[C@@H](C)[C@H](C)CC[C@]4(C)CC[C@]23C)[C@@]1(C)C(=O)OCn1cc(-c2ccccc2C)nn1 [6b, (4-(O-tolyl)-1H-1,2,3-triazol-1-yl) Methyl 3α-acetyloxy-11-oxo-urs-12-en-24-oate] | 2.25 ± 0.1 | 2.25 ± 0.1 |  |  |
| COc1ccccc1-c1cn(COC(=O)C2(C)C(OC(C)=O)CCC3(C)C2CCC2(C)C3C(=O)C=C3C4C(C)C(C)CCC4(C)CCC32C)nn1 (stereo not drawn) [6c, (4-(Ortho-methoxyphenyl)-1H-1,2,3-triazol-1-yl) Methyl 3α-acetyloxy-11-oxo-urs-12-en-24-oate] | 1.23 | 1.23 ± 0.08 |  |  |
| CC(=O)O[C@@H]1CC[C@@]2(C)[C@@H](CC[C@]3(C)[C@@H]2C(=O)C=C2[C@@H]4[C@@H](C)[C@H](C)CC[C@]4(C)CC[C@]23C)[C@@]1(C)C(=O)OCn1cc(-c2ccccc2C(F)(F)F)nn1 [6d] | 2.37 | 2.37 ± 0.11 |  |  |
| COc1ccc(-c2cn(COC(=O)C3(C)C(OC(C)=O)CCC4(C)C3CCC3(C)C4C(=O)C=C4C5C(C)C(C)CCC5(C)CCC43C)nn2)cc1 (stereo not drawn) [6e, (4-(Para-methoxyphenyl)-1H-1,2,3-triazol-1-yl) Methyl 3α-acetyloxy-11-oxo-urs-12-en-24-oate] | 2.01 | 2.01 ± 0.09 |  |  |
| CC(=O)OC1CCC2(C)C(CCC3(C)C2C(=O)C=C2C4C(C)C(C)CCC4(C)CCC23C)C1(C)C(=O)OCn1cc(-c2cccc(C(F)(F)F)c2)nn1 (stereo not shown) [6f] | 0.22 | 0.22 ± 0.08 | 840 ± 7 | competitive |
| CC(=O)O[C@@H]1CC[C@@]2(C)[C@@H](CC[C@]3(C)[C@@H]2C(=O)C=C2[C@@H]4[C@@H](C)[C@H](C)CC[C@]4(C)CC[C@]23C)[C@@]1(C)C(=O)OCn1cc(-c2cccc(Br)c2)nn1 [6g] | 0.78 | 0.78 ± 0.01 | 840 ± 7 | competitive |
| CC(=O)OC1CCC2(C)C(CCC3(C)C2C(=O)C=C2C4C(C)C(C)CCC4(C)CCC23C)C1(C)C(=O)OCn1cc(-c2ccc(Br)cc2)nn1 (stereo not shown) [6h] | 0.69 | 0.69 ± 0.04 |  |  |
| CC(=O)O[C@@H]1CC[C@@]2(C)[C@@H](CC[C@]3(C)[C@@H]2C(=O)C=C2[C@@H]4[C@@H](C)[C@H](C)CC[C@]4(C)CC[C@]23C)[C@@]1(C)C(=O)OCn1cc(-c2ccc(Cl)cc2)nn1 [6i] | 3.06 | 3.06 ± 0.22 |  |  |
| CC(=O)O[C@@H]1CC[C@@]2(C)[C@@H](CC[C@]3(C)[C@@H]2C(=O)C=C2[C@@H]4[C@@H](C)[C@H](C)CC[C@]4(C)CC[C@]23C)[C@@]1(C)C(=O)OCn1cc(-c2ccc(F)cc2)nn1 [6j] | 0.58 | 0.58 ± 0.04 |  |  |
| CC(=O)O[C@@H]1CC[C@@]2(C)[C@@H](CC[C@]3(C)[C@@H]2C(=O)C=C2[C@@H]4[C@@H](C)[C@H](C)CC[C@]4(C)CC[C@]23C)[C@@]1(C)C(=O)OCn1cc(-c2ccc(C(F)(F)F)cc2)nn1 [6k] | 1.26 | 1.26 ± 0.05 |  |  |
| CC1CCC2(C)CCC3(C)C(=CC(=O)C4C5(C)CCC(O)C(C)(C(=O)OCn6cc(-c7ccccc7)nn6)C5CCC43C)C2C1C (stereo not drawn) [7a, (4-Phenyl-1H-1,2,3-triazol-1-yl) Methyl 3α-hydroxy-11-oxo-urs-12-en-24-oate] | 2.31 | 2.31 ± 0.17 |  |  |
| Cc1ccccc1-c1cn(COC(=O)C2(C)C(O)CCC3(C)C2CCC2(C)C3C(=O)C=C3C4C(C)C(C)CCC4(C)CCC32C)nn1 (stereo not drawn) [7b, (4-(Ortho-tolyl)-1H-1,2,3-triazol-1-yl) Methyl 3α-hydroxy-11-oxo-urs-12-en-24-oate] | 2.11 | 2.11 ± 0.1 |  |  |
| COc1ccccc1-c1cn(COC(=O)[C@@]2(C)[C@H](O)CC[C@@]3(C)[C@H]2CC[C@]2(C)[C@@H]3C(=O)C=C3[C@@H]4[C@@H](C)[C@H](C)CC[C@]4(C)CC[C@]32C)nn1 [7c, (4-(Ortho-methoxyphenyl)-1H-1,2,3-triazol-1-yl) Methyl 3α-hydroxy-11-oxo-urs-12-en-24-oate] | 2.18 | 2.18 ± 0.01 |  |  |
| CC(=O)O[C@@H]1CC[C@@]2(C)[C@@H](CC[C@]3(C)[C@@H]2C(=O)C=C2[C@@H]4[C@@H](C)[C@H](C)CC[C@]4(C)CC[C@]23C)[C@@]1(C)C(=O)OCn1cc(-c2ccccc2C(F)(F)F)nn1 [7d] | 2.62 | 2.62 ± 0.06 |  |  |
| COc1ccc(-c2cn(COC(=O)C3(C)C(O)CCC4(C)C3CCC3(C)C4C(=O)C=C4C5C(C)C(C)CCC5(C)CCC43C)nn2)cc1 (stereo not drawn) [7e, (4-(Para-methoxyphenyl)-1H-1,2,3-triazol-1-yl) Methyl 3α-hydroxy-11-oxo-urs-12-en-24-oate] | 2.37 | 2.37 ± 0.07 |  |  |
| CC1CCC2(C)CCC3(C)C(=CC(=O)C4C5(C)CCC(O)C(C)(C(=O)OCn6cc(-c7cccc(C(F)(F)F)c7)nn6)C5CCC43C)C2C1C (stereo not shown) [7f] | 2.52 | 2.52 ± 0.12 |  |  |
| C[C@H]1[C@H](C)CC[C@]2(C)CC[C@]3(C)C(=CC(=O)[C@@H]4[C@@]5(C)CC[C@@H](O)[C@](C)(C(=O)OCn6cc(-c7cccc(Br)c7)nn6)[C@@H]5CC[C@]43C)[C@H]12 [7g] | 1.34 | 1.34 ± 0.02 |  |  |
| C[C@H]1[C@H](C)CC[C@]2(C)CC[C@]3(C)C(=CC(=O)[C@@H]4[C@@]5(C)CC[C@@H](O)[C@](C)(C(=O)OCn6cc(-c7ccc(Br)cc7)nn6)[C@@H]5CC[C@]43C)[C@H]12 [7h] | 0.43 | 0.43 ± 0.05 | 1180 ± 1.2 | mixed |
| CC(=O)O[C@@H]1CC[C@@]2(C)[C@@H](CC[C@]3(C)[C@@H]2C(=O)C=C2[C@@H]4[C@@H](C)[C@H](C)CC[C@]4(C)CC[C@]23C)[C@@]1(C)C(=O)OCn1cc(-c2ccc(Cl)cc2)nn1 [7i] | 3.18 | 3.18 ± 0.69 |  |  |
| CC(=O)O[C@@H]1CC[C@@]2(C)[C@@H](CC[C@]3(C)[C@@H]2C(=O)C=C2[C@@H]4[C@@H](C)[C@H](C)CC[C@]4(C)CC[C@]23C)[C@@]1(C)C(=O)OCn1cc(-c2ccc(F)cc2)nn1 [7j] | 2.64 | 2.64 ± 0.03 |  |  |
| CC(=O)O[C@@H]1CC[C@@]2(C)[C@@H](CC[C@]3(C)[C@@H]2C(=O)C=C2[C@@H]4[C@@H](C)[C@H](C)CC[C@]4(C)CC[C@]23C)[C@@]1(C)C(=O)OCn1cc(-c2ccc(C(F)(F)F)cc2)nn1 [7k] | 1.39 | 1.39 ± 0.11 |  |  |
| C#CCOC(=O)[C@]1(C)C2CC[C@]3(C)C(C(=O)C=C4[C@@H]5[C@@H](C)[C@H](C)CC[C@]5(C)CC[C@]43C)[C@@]2(C)CC[C@H]1OC(C)=O (stereo partly drawn) [compound 3, (Prop-2-yne-1-yl) 3α-acetyloxy-11-oxo-urs-12-en-24-oate] | 4.72 ± 0.52 |  |  |  |
| C#CCOC(=O)C1(C)C(O)CCC2(C)C1CCC1(C)C2C(=O)C=C2C3C(C)C(C)CCC3(C)CCC21C (stereo not drawn) [compound 4, (Prop-2-yne-1-yl) 3α-hydroxy-11-oxo-urs-12-en-24-oate] | 5.32 ± 0.15 |  |  |  |
